Columns and labels:
EAE = conditions: Lewis rats; cited from earlier work
[1] = system: PBMC from healthy donors and MS patients; assay: T cell proliferation of PBMC, primary and secondary (3H-thymidine); format: cell-based, human; conditions: 20 μg/ml; healthy donor and MS patient PBMC; words
Description: FIG. 1: Peptide length and composition affect the stimulatory potential of complex mixtures (CM). The stimulatory capacity of CM ranging in size and composition were tested in PBMC from nine healthy donors in both primary (A,C) and secondary (B,D) proliferations to confirm the specificity of the response. 20 μg/ml of CM or GA were each added to 18 wells and the % of positive wells (those wells with CPM having an SI greater than twice that observed in background/control wells) determined from pooled data from all donors. Figures A and B analyze the contribution of peptide length and Figures C and D the composition or MHC-bias to stimulatory potential. […]
PBMC were isolated from leukocytaphereses and seeded in complete T cell medium (TCM; Iscove's modified Dulbecco's medium [IMDM] containing 2 mM 1-glutamine, 50 μg/ml gentamycin, penicillin-streptomycin 100 U/ml each, and 5% pooled human AB serum) at 2×10^5 cells/well into 96 well U-bottom microtiter plates (Nunc, Naperville, Ill.) and stimulated with CM and GA at 20 μg/ml. After 6 days, 100 μl samples of cell suspension were removed from these plates and transferred to a new microtiter plate to which 1 μCi/well of H^3-thymdidine (Amersham Pharmacia Biotech, Piscataway, N.J.) was added and after 16 hours harvested and counted in a scintillation counter (Microbeta, Wallac, Gatihersburg, Md.). […]

SJL mouse spleen cells = assay: SJL mouse spleen primary proliferative responses to CM; format: cell-based; conditions: naive SJL spleen cells; 40, 10, 2.5 μg/ml; words
Description: FIG. 3: SJL mouse spleen primary proliferative responses to CM. Mouse splenic cells were seeded with 3 different doses of CM (40, 10 and 2.5 μg/ml) or GA to test for stimulatory potential of CM of (A) varying length or (B) differential anchor bias. 18 wells were seeded per antigen, and data from 2 experiments were pooled. % positive wells represents the proportion of wells with CPM at a SI greater than 2 compared to background/control wells.
(§1) 6-8 week old female SJL/J mice were purchased from Charles River Laboratories (Wilmington, Mass.). Spleen cells were isolated from anesthetized naïve SJL mice or 10 days after immunization with 200 μg of CM or GA in Complete Freund's Adjuvant (CFA—Difco Laboratories, Detroit, Mich.) on four spots on their back and subsequent aseptic spleen removal and red blood cell lysis using ACK lysis buffer from Biosource (Camarillo, Calif.). […] After six or three days in naïve or immunized mouse experiments respectively, 1 μCi ^3[H]-thymidine (Dupont, Wilmington, Del.) was added overnight and subsequently harvested and counted for thymidine incorporation on a Trilux liquid scintillation counter (Wallac, Gaithersburg, Md.).

[2] = system: spleen cells from immunized SJL mice; assay: Spleen cells of CM- or GA-immunized SJL mice, response to immunizing antigen; format: cell-based, mouse; conditions: spleen cells ten days after immunization; words
From the text: (§2) FIG. 4. Cross reactivity of CM-specific lines to MBP. SJL mice were immunized with CM or GA to enhance the number of CM-specific T cells to assess for cross-reactivity to MBP. Spleen cells were removed from mice ten days post immunization and set into culture (6 wells per condition) with the initial immunizing antigen or human MBP at the μg/ml concentrations shown on the X axes. *p<0.05 by Student's t test comparing proliferation in test wells to control wells without antigen.
as §1

whole human MBP = assay: Spleen cells of CM- or GA-immunized SJL mice, cross reactivity to human MBP; format: cell-based, mouse; conditions: spleen cells ten days after immunization; words
From the text: as §2, §1

PLP139-151-induced EAE = assay: Prophylaxis in PLP139-151-induced EAE; format: in vivo, SJL mice
multiple sclerosis = conditions: MS patients; cited from earlier work
HLA-DR2 = HLA-DR2 (Homo sapiens, UniProt P01903+P01911); conditions: cited from earlier work

Substance: EYYKEYYKEYYK
- effect on EAE (EAE): ameliorate EAE

Substance: Glatiramer acetate [GA]
- stimulatory potential (proliferative responses, % positive wells) [1]: most frequently observed
- stimulatory potential (primary proliferative responses) (SJL mouse spleen cells): most frequently observed
- response to immunizing antigen (SI) [2]: very high SIs
- cross reactivity with whole human MBP (whole human MBP): cross reacted
- Cumulative disease score (day 0-24) (PLP139-151-induced EAE; 500 μg co-injected s.c. with 75 μg PLP 139-151, initial disease course, mean ± SEM): 10.2 ± 1.6
- Cumulative disease score (day 24-45) (PLP139-151-induced EAE; 500 μg co-injected s.c. with 75 μg PLP 139-151, remaining disease course, mean ± SEM): 13.5 ± 3.0
- prophylactic effect on the EAE disease course (PLP139-151-induced EAE; single 500 μg dose with PLP 139-151): significantly reduce the overall disease score
- reduction of cumulative disease score throughout the relapse phase (PLP139-151-induced EAE; single 500 μg dose with PLP 139-151, vs PLP alone): approximately one-third
- reduction of the relapse rate in MS (multiple sclerosis): about 30%
- competition for binding of MBP (85-99) to HLA-DR2 (HLA-DR2): effectively compete

Substance: poly-YEAK
- binding to DR2 molecules (HLA-DR2; compared with poly-YEA, -YEK and -YAK): better binders

From US20090214580A1, “Peptide mixtures with immunomodulatory activity” (priority 2004, published 2009)
